# Measurements taken from PubChem BioAssay (NCI).
#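 Exposure lasted 48 hours, with cells grown in 96-well plates and compounds tested at five concentrations. The concentration for full growth arrest is given as TGI.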
# Key:
# Assay in all cases: growth of human tumour cells (NCI), 48 h
# OVCAR-4 ovarian = test system: OVCAR-4 ovarian
# COLO 205 colon = test system: COLO 205 colon
# CCRF-CEM leukemia = test system: CCRF-CEM leukemia
# HOP-62 NSCLC = test system: HOP-62 NSCLC
# SNB-19 CNS = test system: SNB-19 CNS
# SK-OV-3 ovarian = test system: SK-OV-3 ovarian
# A498 renal = test system: A498 renal
# MOLT-4 leukemia = test system: MOLT-4 leukemia
# IGROV1 ovarian = test system: IGROV1 ovarian
# SK-MEL-28 melanoma = test system: SK-MEL-28 melanoma
# SK-MEL-5 melanoma = test system: SK-MEL-5 melanoma
# M19-MEL melanoma = test system: M19-MEL melanoma
# OVCAR-3 ovarian = test system: OVCAR-3 ovarian
# A549 NSCLC = test system: A549 NSCLC
# SN12C renal = test system: SN12C renal
# UACC-62 melanoma = test system: UACC-62 melanoma
# U251 CNS = test system: U251 CNS
# SNB-75 CNS = test system: SNB-75 CNS
# RPMI-8226 leukemia = test system: RPMI-8226 leukemia
# UACC-257 melanoma = test system: UACC-257 melanoma
# NCI-H522 lung = test system: NCI-H522 lung
# HCC-2998 colon = test system: HCC-2998 colon
# HCT-15 colon = test system: HCT-15 colon
# SW-620 colon = test system: SW-620 colon
# HT29 colon = test system: HT29 colon
# M14 melanoma = test system: M14 melanoma
# ACHN renal = test system: ACHN renal
# XF 498 CNS = test system: XF 498 CNS
# LXFL 529 NSCLC = test system: LXFL 529 NSCLC
# NCI-H23 lung = test system: NCI-H23 lung
# OVCAR-8 ovarian = test system: OVCAR-8 ovarian
# TK-10 renal = test system: TK-10 renal
# SNB-78 CNS = test system: SNB-78 CNS
# K-562 leukemia = test system: K-562 leukemia
# SF-268 CNS = test system: SF-268 CNS
# KM20L2 colon = test system: KM20L2 colon
# SF-295 CNS = test system: SF-295 CNS
# UO-31 renal = test system: UO-31 renal
# OVCAR-5 ovarian = test system: OVCAR-5 ovarian
# CAKI-1 renal = test system: CAKI-1 renal
# DLD-1 colon = test system: DLD-1 colon
# KM12 colon = test system: KM12 colon
# DMS 114 small cell lung = test system: DMS 114 small cell lung
# NCI-H460 lung = test system: NCI-H460 lung
# EKVX NSCLC = test system: EKVX NSCLC
# DMS 273 small cell lung = test system: DMS 273 small cell lung
# SR leukemia = test system: SR leukemia
# HCT-116 colon = test system: HCT-116 colon
# SF-539 CNS = test system: SF-539 CNS
# 786-0 renal = test system: 786-0 renal
# HL-60(TB) leukemia = test system: HL-60(TB) leukemia
# HOP-18 NSCLC = test system: HOP-18 NSCLC
# NCI-H226 lung = test system: NCI-H226 lung
# MALME-3M melanoma = test system: MALME-3M melanoma
# SK-MEL-2 melanoma = test system: SK-MEL-2 melanoma
# HOP-92 NSCLC = test system: HOP-92 NSCLC
# RXF 393 renal = test system: RXF 393 renal
# LOX IMVI melanoma = test system: LOX IMVI melanoma
smiles,measurement,setting,value
COc1ccc(/C=C/C(=O)C(C)(C)C)cc1OC,TGI,OVCAR-4 ovarian,> 100 µM
same,TGI,COLO 205 colon,> 100 µM
same,TGI,CCRF-CEM leukemia,> 100 µM
same,TGI,HOP-62 NSCLC,> 100 µM
same,TGI,SNB-19 CNS,> 100 µM
same,TGI,SK-OV-3 ovarian,> 100 µM
same,TGI,A498 renal,> 100 µM
same,TGI,MOLT-4 leukemia,> 100 µM
same,TGI,IGROV1 ovarian,> 100 µM
same,TGI,SK-MEL-28 melanoma,> 100 µM
same,TGI,SK-MEL-5 melanoma,> 100 µM
same,TGI,M19-MEL melanoma,> 100 µM
same,TGI,OVCAR-3 ovarian,> 100 µM
same,TGI,A549 NSCLC,> 100 µM
same,TGI,SN12C renal,> 100 µM
same,TGI,UACC-62 melanoma,> 100 µM
same,TGI,U251 CNS,> 100 µM
same,TGI,SNB-75 CNS,> 100 µM
same,TGI,RPMI-8226 leukemia,> 100 µM
same,TGI,UACC-257 melanoma,> 100 µM
same,TGI,NCI-H522 lung,> 100 µM
same,TGI,HCC-2998 colon,> 100 µM
same,TGI,HCT-15 colon,> 100 µM
same,TGI,SW-620 colon,> 100 µM
same,TGI,HT29 colon,> 100 µM
same,TGI,M14 melanoma,> 100 µM
same,TGI,ACHN renal,> 100 µM
same,TGI,XF 498 CNS,> 100 µM
same,TGI,LXFL 529 NSCLC,> 100 µM
same,TGI,NCI-H23 lung,> 100 µM
same,TGI,OVCAR-8 ovarian,> 100 µM
same,TGI,TK-10 renal,> 100 µM
same,TGI,SNB-78 CNS,> 100 µM
same,TGI,K-562 leukemia,> 100 µM
same,TGI,SF-268 CNS,> 100 µM
same,TGI,KM20L2 colon,> 100 µM
same,TGI,SF-295 CNS,> 100 µM
same,TGI,UO-31 renal,> 100 µM
same,TGI,OVCAR-5 ovarian,> 100 µM
same,TGI,CAKI-1 renal,> 100 µM
same,TGI,DLD-1 colon,> 100 µM
same,TGI,KM12 colon,> 100 µM
same,TGI,DMS 114 small cell lung,> 100 µM
same,TGI,NCI-H460 lung,> 100 µM
same,TGI,EKVX NSCLC,> 100 µM
CCCCC1CC(c2ccc(Cl)cc2)=NO1 (stereo not drawn),TGI,OVCAR-4 ovarian,> 100 µM
same,TGI,COLO 205 colon,> 100 µM
same,TGI,CCRF-CEM leukemia,> 100 µM
same,TGI,HOP-62 NSCLC,> 100 µM
same,TGI,SNB-19 CNS,> 100 µM
same,TGI,SK-OV-3 ovarian,> 100 µM
same,TGI,A498 renal,> 100 µM
same,TGI,DMS 273 small cell lung,> 100 µM
same,TGI,MOLT-4 leukemia,> 100 µM
same,TGI,IGROV1 ovarian,> 100 µM
same,TGI,SR leukemia,> 100 µM
same,TGI,SK-MEL-28 melanoma,> 100 µM
same,TGI,SK-MEL-5 melanoma,> 100 µM
same,TGI,M19-MEL melanoma,> 100 µM
same,TGI,OVCAR-3 ovarian,> 100 µM
same,TGI,A549 NSCLC,> 100 µM
same,TGI,SN12C renal,> 100 µM
same,TGI,UACC-62 melanoma,> 100 µM
same,TGI,U251 CNS,> 100 µM
same,TGI,SNB-75 CNS,> 100 µM
same,TGI,RPMI-8226 leukemia,> 100 µM
same,TGI,HCT-116 colon,> 100 µM
same,TGI,UACC-257 melanoma,> 100 µM
same,TGI,NCI-H522 lung,> 100 µM
same,TGI,HCC-2998 colon,> 100 µM
same,TGI,HCT-15 colon,> 100 µM
same,TGI,SW-620 colon,> 100 µM
same,TGI,HT29 colon,> 100 µM
same,TGI,M14 melanoma,> 100 µM
same,TGI,ACHN renal,> 100 µM
same,TGI,SF-539 CNS,> 100 µM
same,TGI,LXFL 529 NSCLC,> 100 µM
same,TGI,NCI-H23 lung,> 100 µM
same,TGI,786-0 renal,> 100 µM
same,TGI,OVCAR-8 ovarian,> 100 µM
same,TGI,TK-10 renal,> 100 µM
same,TGI,HL-60(TB) leukemia,> 100 µM
same,TGI,SNB-78 CNS,> 100 µM
same,TGI,K-562 leukemia,> 100 µM
same,TGI,SF-268 CNS,> 100 µM
same,TGI,SF-295 CNS,> 100 µM
same,TGI,HOP-18 NSCLC,> 100 µM
same,TGI,NCI-H226 lung,> 100 µM
same,TGI,UO-31 renal,> 100 µM
same,TGI,OVCAR-5 ovarian,> 100 µM
same,TGI,CAKI-1 renal,> 100 µM
same,TGI,MALME-3M melanoma,> 100 µM
same,TGI,DLD-1 colon,> 100 µM
same,TGI,KM12 colon,> 100 µM
same,TGI,SK-MEL-2 melanoma,> 100 µM
same,TGI,HOP-92 NSCLC,> 100 µM
same,TGI,DMS 114 small cell lung,> 100 µM
same,TGI,NCI-H460 lung,> 100 µM
same,TGI,EKVX NSCLC,> 100 µM
N#Cc1c2c(c(Cl)n3c1nc1ccccc13)CCCC2,TGI,OVCAR-4 ovarian,16.7 µM
same,TGI,COLO 205 colon,17.7 µM
same,TGI,SNB-19 CNS,14.7 µM
same,TGI,SK-OV-3 ovarian,10.2 µM
same,TGI,A498 renal,23.8 µM
same,TGI,DMS 273 small cell lung,3.74 µM
same,TGI,MOLT-4 leukemia,24.8 µM
same,TGI,IGROV1 ovarian,8.28 µM
same,TGI,SR leukemia,> 100 µM
same,TGI,SK-MEL-28 melanoma,4.43 µM
same,TGI,SK-MEL-5 melanoma,3.26 µM
same,TGI,M19-MEL melanoma,12.2 µM
same,TGI,OVCAR-3 ovarian,20.1 µM
same,TGI,A549 NSCLC,17.2 µM
same,TGI,SN12C renal,4.74 µM
same,TGI,U251 CNS,11.8 µM
same,TGI,SNB-75 CNS,30.9 µM
same,TGI,RPMI-8226 leukemia,7.52 µM
same,TGI,HCT-116 colon,5.43 µM
same,TGI,UACC-257 melanoma,3.91 µM
same,TGI,HCC-2998 colon,30.8 µM
same,TGI,HCT-15 colon,10.6 µM
same,TGI,SW-620 colon,4.43 µM
same,TGI,HT29 colon,2.86 µM
same,TGI,M14 melanoma,11.3 µM
same,TGI,ACHN renal,12.4 µM
same,TGI,XF 498 CNS,5.29 µM
same,TGI,SF-539 CNS,14 µM
same,TGI,NCI-H23 lung,17 µM
same,TGI,786-0 renal,3.33 µM
same,TGI,OVCAR-8 ovarian,5.89 µM
same,TGI,TK-10 renal,6.68 µM
same,TGI,HL-60(TB) leukemia,5.25 µM
same,TGI,SNB-78 CNS,15.9 µM
same,TGI,K-562 leukemia,7.15 µM
same,TGI,SF-268 CNS,8.83 µM
same,TGI,KM20L2 colon,7.48 µM
same,TGI,SF-295 CNS,16.6 µM
same,TGI,RXF 393 renal,0.904 µM
same,TGI,UO-31 renal,12.8 µM
same,TGI,OVCAR-5 ovarian,32.4 µM
same,TGI,CAKI-1 renal,11.8 µM
same,TGI,MALME-3M melanoma,27 µM
same,TGI,DLD-1 colon,24.2 µM
same,TGI,SK-MEL-2 melanoma,8.34 µM
same,TGI,DMS 114 small cell lung,5.12 µM
same,TGI,NCI-H460 lung,4.02 µM
same,TGI,EKVX NSCLC,32.1 µM
same,TGI,LOX IMVI melanoma,4.57 µM
